This passage reports GI50 and TGI results from PubChem BioAssay (NCI).

Molecules are shown by their SMILES. “And” between values parts separate entries of the source, which are not always exact repeats. Equal entries are not always repeated.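 How tested: cells in 96-well plates exposed to compound for 48 hours at five concentrations. GI50 marks 50% less growth. The concentration for full growth arrest is given as TGI.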

What all share (assay): DTP human tumour cell line panel, 48 h
In experiment [1] the test system is HOP-92 NSCLC.
For experiment [2], the system named is MALME-3M melanoma.
Experiment [3] relates to NCI-H460 lung.
Experiment [4] has as its system RPMI-8226 leukemia.
The subject of experiment [5] is RXF 393 renal.
Experiment [6] has as its system SK-MEL-28 melanoma.
Experiment [7] has as its system SNB-19 CNS.
Experiment [8] has as its system SNB-75 CNS.
Experiment [9] concerns T-47D breast.
Experiment [10] has as its system UO-31 renal.

Broadly, the GI50 is the concentration giving 50% growth inhibition. What is called TGI is the concentration giving total growth inhibition. As for `COc1ccc(-c2cc(-c3ccc(O)cc3)nc3nc(=S)[nH]c(N)c23)cc1`, the GI50 is 5.15 µM in experiment [1]; 17.6 µM in experiment [2]; 15.9 µM in [3]; 10.6 µM in [4]; 28 µM in experiment [5]; 66.8 µM in experiment [6]. The GI50 is 26.7 µM in experiment [7], 26.2 µM in experiment [8], 14.3 µM in experiment [9] and 13.2 µM in experiment [10]. In addition, the TGI in experiment [1] was 36.4 µM; in [2] it was 38.7 µM; in experiment [3], 36.9 µM; in experiment [4], 25.7 µM; in experiment [5] it was 92.7 µM; in experiment [6] it was above 100 µM. In addition, the total growth inhibition concentration (TGI) is above 100 µM in [7], above 100 µM in experiment [8], 80.1 µM in experiment [9] and 44.9 µM in [10].

On to `NC(=O)c1nnn(Cc2cc(Cl)c(C(=O)c3ccc(Cl)cc3)c(Cl)c2)c1N`, for which the GI50 was above 9.09 µM in experiment [1]; above 9.09 µM in [2]; 1.04 µM in experiment [3]; above 9.09 µM in experiment [4]; above 9.09 µM in [5]; above 9.09 µM in [6]. Besides, the GI50 in experiment [7], in [8] and in experiment [10] was above 9.09 µM in each case. The TGI was > 9.09 µM and 48.8 µM in [1]; > 9.09 µM and 44.1 µM in experiment [2]; > 9.09 µM and 40.2 µM in experiment [3]; above 70.6 µM in experiment [4]; > 9.09 µM and 39.3 µM in experiment [5]; > 9.09 µM and 44.6 µM in experiment [6]. Moreover, the concentration for total growth inhibition (TGI) is > 9.09 µM and 30.5 µM in experiment [7]; > 9.09 µM and 48 µM in experiment [8]; above 51.6 µM in experiment [9]; > 9.09 µM and 42.1 µM in [10].

For `CS(=O)(=O)N1CCN(Cc2cc3nc(-c4cccc5[nH]ncc45)nc(N4CCOCC4)c3s2)CC1`, the GI50 in experiment [1] was 0.0232 µM and 0.0547 µM; in experiment [2], 0.311 µM and 0.128 µM; in experiment [3] it was 0.357 µM and 0.311 µM; in experiment [4], 2 µM and 1.94 µM; in experiment [5], 0.209 µM and 0.165 µM; in experiment [6], 0.345 µM and 0.133 µM. The GI50 in experiment [7] is 2.91 µM and 0.896 µM; in experiment [8] it was 0.0918 µM and 0.0301 µM; in experiment [9], 0.0668 µM and 0.035 µM; in experiment [10], 0.174 µM and 0.105 µM. Moreover, the TGI in experiment [1] is 0.197 µM and 0.508 µM; in [3] it was above 100 µM; in experiment [4], above 22.2 µM; in [5], 1.54 µM and 1.03 µM; in experiment [7] it was above 100 µM; in experiment [8] it was 3.28 µM and 0.495 µM. Moreover, the TGI in experiment [9] is 0.505 µM; in [10] it was above 4.03 µM.

Regarding `O=C(O)CNC(=O)c1ccccc1O`, the TGI in experiment [1], in experiment [2], in experiment [3], in experiment [4], in [5] and in [6] was above 100 µM each time. Further, the TGI in experiment [7], in [8], in [9] and in [10] was above 100 µM each time.

On to `C(=N/Nc1ncnc2nc[nH]c12)/c1ccccn1`, for which the GI50 was 3.14 µM in experiment [1]; 0.268 µM in experiment [2]; 3.29 µM in experiment [3]; 3.9 µM in [4]; 1.92 µM in [5]; 1.2 µM in experiment [6]. Further, the GI50 in experiment [7] is 0.98 µM; in [8], 1.73 µM; in experiment [9] it was 0.308 µM; in experiment [10], 0.265 µM. In addition, the TGI in experiment [1] was 8.72 µM; in [2], 5.62 µM; in [3] it was above 50.8 µM; in experiment [4], above 100 µM; in experiment [5], 7.32 µM; in [6] it was above 100 µM. The total growth inhibition concentration (TGI) is above 100 µM in experiment [7], 35.1 µM in [8], above 100 µM in experiment [9] and 3.09 µM in [10].

With `Cc1ccc(Cl)cc1Nc1nc(C(F)(F)F)ccc1C(=O)N/N=C/c1c(Cl)cccc1Cl`, the GI50 is 1.14 µM in [1]; 1.69 µM in experiment [2]; 0.578 µM in [3]; 0.32 µM in experiment [4]; 1.23 µM in experiment [5]; 1.84 µM in experiment [6]. In addition, the GI50 is 1.75 µM in experiment [7], 1.45 µM in experiment [8], 0.517 µM in experiment [9] and 1.53 µM in [10]. In addition, the TGI was determined as 6.92 µM in [1]; 5.44 µM in experiment [2]; 4.81 µM in experiment [3]; 1.79 µM in experiment [4]; 3.48 µM in experiment [5]; 32.1 µM in [6]. Further, the TGI in experiment [7] is above 52.2 µM; in experiment [8], above 24.2 µM; in experiment [9], 5.18 µM; in experiment [10] it was 5.13 µM.

With `CC1(C)CC(=O)C2=C(C1)NC(SSC1=C(C#N)C(c3ccc(Br)cc3)C3=C(CC(C)(C)CC3=O)N1)=C(C#N)C2c1ccc(Br)cc1` (configuration not stated), the GI50 in experiment [1] was 46.4 µg/mL; in experiment [2], 35.8 µg/mL; in experiment [3], above 150 µg/mL; in [4], 30.6 µg/mL; in experiment [5], 41.6 µg/mL; in experiment [6] it was 48.4 µg/mL. The GI50 in experiment [7] is above 150 µg/mL; in [8], above 150 µg/mL; in experiment [9], 35 µg/mL; in experiment [10], 76.3 µg/mL. Besides, the concentration for total growth inhibition (TGI) in experiment [1] was > 100 µM and 116 µg/mL; in experiment [2], > 100 µM and 98.7 µg/mL; in [3], > 100 µM and 150 µg/mL; in experiment [4] it was > 100 µM and 79.3 µg/mL; in experiment [5] it was > 100 µM and 123 µg/mL; in experiment [6], > 100 µM and 131 µg/mL. Moreover, the total growth inhibition concentration (TGI) in experiment [7] is > 100 µM and 150 µg/mL; in experiment [8] it was 150 µg/mL; in [9], > 100 µM and 119 µg/mL; in [10], > 100 µM and 150 µg/mL.

As to `Fc1ccc(-c2ncn(C3CCNCC3)c2-c2ccnc(Oc3ccccc3)n2)cc1`, the GI50 in experiment [1] was 5.75 µM; in experiment [2], 18.4 µM; in experiment [3], 16.1 µM; in experiment [4], above 23.9 µM; in [5] it was 11.7 µM; in experiment [6], 16.9 µM. Besides, the GI50 in [7] was above 25 µM; in [8], above 19.3 µM; in [9], 17.3 µM; in experiment [10] it was 7.72 µM. Also, the TGI in experiment [1], in experiment [2], in [3], in experiment [4], in experiment [5] and in experiment [6] was above 25 µM throughout. In addition, the TGI in [7], in experiment [8], in experiment [9] and in experiment [10] was above 25 µM in each case.
